# According to patent publication US20210177812A1, “METHODS OF SUPPRESSING MYELOID-DERIVED SUPPRESSOR CELLS IN PATIENTS” (MediciNova, Inc., priority 2018, published 2021):
# “Also recorded” adds a separate entry of the source. Like-named read-outs stand apart in the source and are kept apart here.
# Assays:
# [1] = tested on: mouse model of glioma GL261; test: Flow cytometry of MDSCs and T-cells in tumor, blood, spleen and bone marrow, mouse model of glioma GL261; format: in vivo; settings: day 19; for monocytic MDSCs (M-MDSCs) in the tumor: ibudilast dosed 50 mg/kg i.p. daily from day 5 (AV1013 dose not given), vs vehicle
# Procedure: (§1) Ibudilast was tested in vivo using the mouse model of glioma GL261. Cells were implanted on day 0 and then a 5-day engrafiment period was used to ensure that the treatment being tested was performing by inhibiting tumor growth and not engraftment. After 5 days the mice were intraperitoneally injected daily with ibudilast at 50 mg/kg in a vehicle consisting of PEG 400 and (2-hydroxypropyl)-p-cyclodextrin to enhance solubility with low toxicity or alternatively mice were treated with AV1013. At day 19 post injection, 3 mice from each group (ibudilast, AV1013 or vehicle) were sacrificed for flow cytometry analysis of MDSCs, T-cells, and NK cells in the tumor, blood, spleen, and bone marrow.
# [2] = tested on: MIF/CD74 signaling pathway; test: mRNA expression of CD45+ cells isolated from vehicle- and ibudilast-treated tumors; format: in vivo, mouse; settings: n=3 per group
# Procedure: as §1
# Further analysis was conducted on the mRNA expression of CD45+ cells isolated from vehicle- and ibudilast-treated tumors.
# [3] = in vivo, cited from earlier work
# [4] = tested on: mouse model of glioma GL261; test: Kaplan Meier survival analysis, mouse model of glioma GL261; format: in vivo; settings: n=10 per group; vehicle median 19 days; Log Rank p=0.016
# Procedure: as §1
# The median survival times for vehicle-treated mice (n=10) was 19 days whereas ibudilast-treated mice (n=10) were undetermined at this point (Log Rank p=0.016, […]) (FIG. 14).
# M-MDSCs = test: MDSC generation in co-cultures with MIF inhibitors quantified by flow cytometry; format: cell-based, mouse; settings: GL261/bone marrow co-culture
# Procedure: (§2) MDSCs were prepared through a co-culture process illustrated in FIG. 1. Glioma cell line GL261 is cultured together with freshly isolated bone marrow for 4 days. During this 4-day process the glioma cell line initiates subsets of the naïve monocytes within the bone marrow to become both monocytic MDSCs (M-MDSCs) and granulocytic MDSCs (G-MDSCs) distinguished via flow cytometry using CD11b, Ly6C, and GR1. The GR1+ population was harvested at day 4 via magnetic bead separation. Once isolated the MDSCs were combined with freshly isolated splenic T-cells which were labeled with CFSE and activated using CD3/28 activation beads. The T-cell proliferation was then determined 3 days after being combined with MDSCs by measuring the fluorescence intensity of each CD3 T-cell after 3 days of being cultured with MDSCs (FIG. 2).
# MCP-1 = test: Serum cytokine analysis at day 19 of treated GL261 mice; format: in vivo, mouse; settings: day 19, 3 animals per group
# Procedure: as §1
# MDSCs = test: T-cell proliferation in the presence of ibudilast-treated MDSCs from GL261/bone marrow co-culture; format: cell-based, mouse; settings: CFSE-labeled CD3/28-activated splenic T-cells, 3 days with MDSCs; n=6 mice, 2 experiments, P=0.001
# Procedure: as §2
# GL261 = test: In vitro treatment of co-culture for 24 h, MCP-1 (CCL2) secretion; format: cell-based, mouse; settings: co-culture treated 24 h in vitro
SMILES,monocytic MDSCs (M-MDSCs) in the tumor [1],CCR2 mRNA expression [2],CD74 mRNA expression [2],MCP-1 (CCL2) mRNA expression [2],MIF mRNA expression [2],myeloid genes mRNA expression [2],CNS distribution / penetration [3],CNS distribution / penetration ([3]; listed as Ibudilast),survival versus vehicle [4],M-MDSC generation (M-MDSCs),"CD8 T-cells ([1]; 50 mg/kg i.p. daily, FIG. 7)","CD4 T-cells ([1]; 50 mg/kg i.p. daily, FIG. 8)","monocytic MDSCs (M-MDSCs) in the blood ([1]; blood, 50 mg/kg i.p. daily from day 5, 50 mg/kg)","monocytic MDSCs (M-MDSCs) in the marrow ([1]; bone marrow, 50 mg/kg i.p. daily from day 5, 50 mg/kg)","monocytic MDSCs (M-MDSCs) in the spleen ([1]; spleen, 50 mg/kg i.p. daily from day 5, 50 mg/kg)","immune suppressive T-regulatory cells ([1]; tumor vs blood, marrow, spleen, 50 mg/kg i.p. daily)",monocytic MDSCs (M-MDSCs) in the tumor ([1]; 50 mg/kg),serum MCP-1 level (MCP-1),suppressive abilities of MDSCs on T-cell proliferation (MDSCs),secretion of MCP-1 (CCL2) (GL261)
CC(N)C(=O)c1c(C(C)C)nn2ccccc12 (centres unmarked) [AV1013],no significant suppression,–,–,–,–,–,–,–,–,–,–,–,–,–,–,–,–,–,–,–
"CC(C)C(=O)c1c(C(C)C)nn2ccccc12 [ibudilast, 3-isobutyryl-2-isopropylpyrazolo(1,5-a)pyridine]",–,significantly reduced,significantly reduced,significantly reduced,not reduced,Overall reductions,good CNS penetration,distributes well to the CNS,Significant survival advantages,ability to reduce M-MDSC generation,decreased,increased,"not altered; also recorded: not M-MDSCs associated with blood, spleen or bone marrow","not altered; also recorded: not M-MDSCs associated with blood, spleen or bone marrow","not altered; also recorded: not M-MDSCs associated with blood, spleen or bone marrow",reduced only in the tumors,reduced; also recorded: reduces M-MDSCs associated with tumor,reduction,effectively reduced the suppressive abilities of MDSCs,reduced GLP261 secretion MCP-1 (CCL2) in a dose-dependent manner; also recorded: reduced GL261 secretion of MCP-1(ccl2) in a dose dependent manner
